This is an account of results in patent US10647690B2, “2,3-epoxy succinyl derivative, preparation method and use thereof” (Institute of Pharmacology and Toxicology Academy of …, priority 2016, dated 2020).

The target in the test is T1, Cathepsin K (Homo sapiens, UniProt P43235).
T1 construct: purchased Biovision K150-100
T1 sequence (P43235 115-329): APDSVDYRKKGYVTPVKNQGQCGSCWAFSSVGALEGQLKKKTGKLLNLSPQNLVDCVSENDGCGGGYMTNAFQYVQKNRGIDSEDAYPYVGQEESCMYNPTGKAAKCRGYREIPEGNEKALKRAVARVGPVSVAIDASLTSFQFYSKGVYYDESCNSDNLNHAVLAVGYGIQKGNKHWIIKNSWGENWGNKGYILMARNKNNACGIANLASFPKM
The test can be described thus: Preliminary screening of Cathepsin K (Cathepsin K Inhibitor Screening Kit K150-100, Biovision). The class given is biochemical. The note with it: relative inhibition rate vs 10 μM FF-FMK control; for Inhibition % (1 μM) replicate 1 / Inhibition % (1 μM) replicate 2 / inhibition at 1 µM: 1 μM compound; for Inhibition % (10 μM) replicate 1 / Inhibition % (10 μM) replicate 2 / inhibition at 10 µM: 10 μM compound. The protocol: 1. Method for preliminary screening of Cathepsin K:
Preliminary screening of Cathepsin K was performed by using Cathepsin K Inhibitor Screening Kit (Product No. K150-100) from Biovision Company.
1.1.1 Preparation of Cathepsin K enzyme solution: Cathepsin K enzyme (40 μl) and Cathepsin K reagent (80 μl) were added to Cathepsin K buffer (3.88 ml), and were mixed well, to prepare Cathepsin K enzyme solution with a volume of 4 ml, which was placed on ice for further use.
1.1.2 Preparation of a compound solution: different compounds were separately weighed and dissolved in DMSO (methyl sulfoxide), to prepare solutions at a concentration of 30 mM as stock solutions, and for some insoluble compounds, they were prepared into solutions at a concentration of 10 mM as stock solutions; the 30 mM and 10 mM compound stock solutions were diluted to 1 mM and 100 μM DMSO solutions, respectively; 1 mM and 100 μM compound DMSO solutions (2 μl) were separately added to CTSK buffer (18 μl), to prepare compound solutions at a final concentration of 100 μM and 10 μM, respectively, wherein the concentration of DMSO was 10%.
1.1.3 Preparation of Cathepsin K substrate solution: Cathepsin K substrate (160 μl) was added to Cathepsin K buffer (3.44 ml), and mixed homogeneously, to prepare Cathepsin K substrate solution with a volume of 3.6 ml, which was placed on ice for further use.
1.2 Method for screening Cathepsin K inhibitor: Cathepsin K enzyme solution (prepared in Item 1.1.1) was added to a 384-well plate (ProxiPlate-384 Plus, Perkinelmer) at 10 μl/well, and centrifuged at 1000 rpm for 1 min; the compound solution (prepared in Item 1.1.2) was then added at 2 µl/well, and centrifuged at 1000 rpm for 1 min, and every concentration was repeated in two wells; the plate was placed in a 25° C. incubator for 15 min; Cathepsin K substrate solution was then added at 8 μl/well, and centrifuged at 1000 rpm for 1 min; and finally, the fluorescence signal was read in Enspire, wherein the exciting light was at a wavelength of 400 nm, the emitting light was at a wavelength of 505 nm, and continuous reading was performed at 37° C. for 120 min.
1.3 Data analysis: the slope (S) for all the samples was calculated by ΔRFU (RFU2−RFU1) and time ΔT (T2−T1), including negative control (Enzyme Control, EC) and positive control (Inhibitor Control, IC: 10 μM FF-FMK), and the calculation formula was as followed: Relative inhibition rate %=(SEC−SS)/(SEC−SIC)*100.

Where [1] appears, read: replicate 1, read-out: Inhibition % (1 μM) replicate 1.
[2] abbreviates: replicate 2, read-out: Inhibition % (1 μM) replicate 2.
Where [3] appears, read: replicate 1, read-out: Inhibition % (10 μM) replicate 1.
Setting [4] is: replicate 2, read-out: Inhibition % (10 μM) replicate 2.

As usually defined, the inhibition is the relative decrease from the control value, in per cent.

Read-outs that look alike come from different tables or passages of the source.

Take `CCOC(=O)[C@H]1O[C@@H]1C(=O)N[C@@H](CCSC)C(=O)NCCC(C)C` [Compound 1, (2s, 3s)-2-ethoxycarbonyl-3-[2-[(s)-4-methylthio-1-carbonyl-1-(isopentylamino)butane]formylamino]epoxysuccinic acid]: where the note is “replicate 1”, the “Inhibition % (1 μM) replicate 1” value is on record as 17.79% and the “Inhibition % (10 μM) replicate 1” value turned out to be 41.60%. Further, under “replicate 2”, the “Inhibition % (1 μM) replicate 2” value is recorded as 20.59% and the “Inhibition % (10 μM) replicate 2” value came to 47.08%.
On to `CCCCCNC(=O)[C@H](CCSC)NC(=O)[C@H]1O[C@@H]1C(=O)OCC` [Compound 2, (2s, 3s)-2-ethoxycarbonyl-3-[2-[(s)-4-methylthio-1-carbonyl-1-(pentylamino)butane]formylamino]epoxysuccinic acid], for which the inhibition at 1 µM under setting [1] came out at 28.6% and the inhibition at 1 µM under setting [2] was determined as 33.2%. Further, the inhibition at 10 µM is, setting by setting: under setting [3], 59.5%; under setting [4], 60%.
Take `CCOC(=O)[C@H]1O[C@@H]1C(=O)N[C@@H](CCSC)C(=O)NCC(C)CC` (stereo partly shown) [Compound 3, (2s, 3s)-2-ethoxycarbonyl-3-[2-[(s)-4-methylthio-1-carbonyl-1-(2-methylbutylamino)butane]formylamino]epoxysuccinic acid]: the inhibition at 1 µM reads like this: under setting [1], 31%; under setting [2], 16.6%. In addition, the inhibition at 10 µM under setting [3] is 42% and the inhibition at 10 µM under setting [4] is 36.7%.
For `CCCNC(=O)[C@H](CCSC)NC(=O)[C@H]1O[C@@H]1C(=O)OCC` [Compound 4, (2s, 3s)-2-ethoxycarbonyl-3-[2-[(s)-4-methylthio-1-carbonyl-1-(propylamino)butane]formylamino]epoxysuccinic acid], in that order: 15.6%, 23.6%, 31.6% and 34.9%.
For the compound `CCCC(C)NC(=O)[C@H](CCSC)NC(=O)[C@H]1O[C@@H]1C(=O)OCC` (stereo partly shown) [Compound 6, (2s, 3s)-2-ethoxycarbonyl-3-[2-[(s)-4-methylthio-1-carbonyl-1-(1-methylbutylamino)butane]formylamino]epoxysuccinic acid], the inhibition at 1 µM by setting is: under setting [1], 31.6%; under setting [2], 36.6%. For the same compound, the inhibition at 10 µM under setting [3] is 33% and the inhibition at 10 µM under setting [4] amounted to 39.1%.
Turning to `CCOC(=O)[C@H]1O[C@@H]1C(=O)N[C@@H](CCSC)C(=O)N1CCCC(C)C1` (stereo partly shown) [Compound 7, (2s, 3s)-2-ethoxycarbonyl-3-[2-[(s)-4-methylthio-1-carbonyl-1-(3-methylpiperidinyl)butane]formylamino]epoxysuccinic acid], the inhibition at 1 µM under setting [1] stood at 33% and the inhibition at 1 µM under setting [2] is -19.6%. Also, the inhibition at 10 µM is, setting by setting: under setting [3], 37.4%; under setting [4], 28.4%.
The matching figures for `CCOC(=O)[C@H]1O[C@@H]1C(=O)N[C@@H](CCSC)C(=O)NCC(C)C` [Compound 9, (2s, 3s)-2-ethoxycarbonyl-3-[2-[(s)-4-methylthio-1-carbonyl-1-(isobutylamino)butane]formylamino]epoxysuccinic acid]: 25.6%, 18.1%, 29.2% and 28.8%.
For `CCOC(=O)[C@H]1O[C@@H]1C(=O)N[C@@H](CCSC)C(=O)NCCc1ccc(OC)cc1` [Compound 10, (2s, 3s)-2-ethoxycarbonyl-3-[2-[(s)-4-methylthio-1-carbonyl-1-(4-methoxyphenylethylamino)butane]formylamino]epoxysuccinic acid], in that order: 33.1%, 35.8%, 80.2% and 66.5%.
`CCOC(=O)[C@H]1O[C@@H]1C(=O)N[C@@H](CCSC)C(=O)N1CCCC1` [Compound 11, (2s, 3s)-2-ethoxycarbonyl-3-[2-[(s)-4-methylthio-1-carbonyl-1-(tetrahydropyrrolyl)butane]formylamino]epoxysuccinic acid]: the inhibition at 1 µM by setting is: under setting [1], 15.3%; under setting [2], -7.42%. Besides, the inhibition at 10 µM reads like this: under setting [3], 32%; under setting [4], 15.2%.
Regarding `CCOC(=O)[C@H]1O[C@@H]1C(=O)N[C@@H](CCSC)C(=O)N1CCOCC1` [Compound 12, (2s, 3s)-2-ethoxycarbonyl-3-[2-[(s)-4-methylthio-1-carbonyl-1-(morpholinyl)butane]formylamino]epoxysuccinic id], the inhibition at 1 µM under setting [1] is 15.4% and the inhibition at 1 µM under setting [2] is 26.6%. Further, the inhibition at 10 µM is, setting by setting: under setting [3], 44%; under setting [4], 51.7%.
As for `CCOC(=O)[C@H]1O[C@@H]1C(=O)N[C@H](CSCc1ccccc1)C(=O)NCC(C)CC` (stereo partly shown) [Compound 14, (2s, 3s)-2-ethoxycarbonyl-3-[2-[(s)-3-benzylthio-1-carbonyl-1-(2-methylbutylamino)propane]formylamino]epoxysuccinic acid], for the setting “replicate 1”, the “Inhibition % (1 μM) replicate 1” value amounted to 31.16% and the “Inhibition % (10 μM) replicate 1” value is given as 42.39%. Under “replicate 2”, the “Inhibition % (1 μM) replicate 2” value is listed as −7.18% and the “Inhibition % (10 μM) replicate 2” value was 41.33%.
In the case of `CCOC(=O)[C@H]1O[C@@H]1C(=O)N[C@@H](CSCc1ccccc1)C(=O)NCC(C)(C)C` [Compound 15, (2s, 3s)-2-ethoxycarbonyl-3-[2-[(s)-3-benzylthio-1-carbonyl-1-(neopentylamino)propane]formylamino]epoxysuccinic acid], the inhibition at 1 µM under setting [1] came to 28.1% and the inhibition at 1 µM under setting [2] stood at 35.6%. For the same compound, the inhibition at 10 µM reads like this: under setting [3], 50.1%; under setting [4], 48.6%.
For `CCOC(=O)[C@H]1O[C@@H]1C(=O)N[C@@H](CSCc1ccccc1)C(=O)NC(C)(C)CC` [Compound 16, (2s, 3s)-2-ethoxycarbonyl-3-[2-[(s)-3-benzylthio-1-carbonyl-1-(tert-pentylamino)propane]formylamino]epoxysuccinic acid], in that order: 38.9%, 39.2%, 60.8% and 63.6%.
With `CCCNC(=O)[C@H](CSCc1ccccc1)NC(=O)[C@H]1O[C@@H]1C(=O)OCC` [Compound 17, (2s, 3s)-2-ethoxycarbonyl-3-[2-[(s)-3-benzylthio-1-carbonyl-1-(propylamino)propane]formylamino]epoxysuccinic acid], the inhibition at 1 µM stood at 26.9% under setting [1] and 32.2% under setting [2]. Besides, the inhibition at 10 µM under setting [3] was 34.8% and the inhibition at 10 µM under setting [4] amounted to 31.7%.
For `CCCCCCNC(=O)[C@H](CSCc1ccccc1)NC(=O)[C@H]1O[C@@H]1C(=O)OCC` [Compound 18, (2s, 3s)-2-ethoxycarbonyl-3-[2-[(s)-3-benzylthio-1-carbonyl-1-(hexylamino)propane]formylamino]epoxysuccinic acid], in that order: 23.5%, 32.7%, 56.1% and 48.2%.
For `CCOC(=O)[C@H]1O[C@@H]1C(=O)N[C@@H](CSCc1ccccc1)C(=O)NC(C)CC` (stereo partly shown) [Compound 19, (2s, 3s)-2-ethoxycarbonyl-3-[2-[(s)-3-benzylthio-1-carbonyl-1-(1-methylpropylamino)propane]formylamino]epoxysuccinic acid], in that order: 32%, 20.4%, 33.5% and 27.9%.
